This passage reports T/C results from PubChem BioAssay AID248 (DTP/NCI, 2004).

Molecules are shown by their SMILES. “And” between values parts separate entries of the source, which are not always exact repeats. Equal entries are not always repeated. Inconclusive results and toxic doses are left out.

This test has as its system L1210 leukemia ip in BDF1 mice, survival T/C. The experiment in a line: NCI In Vivo Anticancer Drug Screen. Data for tumor model L1210 Leukemia (intraperitoneal) in B6D2F1 (BDF1) mice. The note with it: endpoint: mean survival time, higher = longer survival. In short, it runs like this:
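In this screen, tumor-bearing mice given compound are compared to those given vehicle, and their survival values are reported as a treated-to-control quotient.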

Setting [1] is: dose: 100.0 mg/kg/injection, schedule: Q04DX003 (ip), vehicle: saline with Tween-80.
Setting [2] is: dose: 200.0 mg/kg/injection, schedule: Q04DX003 (ip), vehicle: saline with Tween-80.
Setting [3] is: dose: 400.0 mg/kg/injection, schedule: Q04DX003 (ip), vehicle: saline with Tween-80.
The mark [4] stands for this setting: dose: 100.0 mg/kg/injection, schedule: Q04DX003 (ip), vehicle: saline.
The mark [5] stands for this setting: dose: 200.0 mg/kg/injection, schedule: Q04DX003 (ip), vehicle: saline.
Setting [6] is: dose: 400.0 mg/kg/injection, schedule: Q04DX003 (ip), vehicle: saline.
[7] abbreviates: dose: 100.0 mg/kg/injection, schedule: Q01DX009 (ip), vehicle: saline with Tween-80.
Setting [8] is: dose: 100.0 mg/kg/injection, schedule: Q01DX001 (ip), vehicle: saline.
[9] abbreviates: dose: 200.0 mg/kg/injection, schedule: Q01DX001 (ip), vehicle: saline.
[10] abbreviates: dose: 400.0 mg/kg/injection, schedule: Q01DX001 (ip), vehicle: saline.
Setting [11] is: dose: 100.0 mg/kg/injection, schedule: Q04DX002 (ip), vehicle: saline with Tween-80.
[12] abbreviates: dose: 200.0 mg/kg/injection, schedule: Q04DX002 (ip), vehicle: saline with Tween-80.

Regarding `Cc1n[nH]c(C)c1Br`, the T/C was 95 % of control (dose: 75.0 mg/kg/injection, schedule: Q01DX009 (ip), vehicle: saline with Tween-80); 97 % of control (dose: 75.0 mg/kg/injection, schedule: Q04DX003 (ip), vehicle: saline with Tween-80); 97 % of control (dose: 150.0 mg/kg/injection, schedule: Q01DX009 (ip), vehicle: saline with Tween-80); 95 % of control (dose: 150.0 mg/kg/injection, schedule: Q04DX003 (ip), vehicle: saline with Tween-80); 99 % of control (dose: 300.0 mg/kg/injection, schedule: Q01DX009 (ip), vehicle: saline with Tween-80); 98 % of control (dose: 300.0 mg/kg/injection, schedule: Q04DX003 (ip), vehicle: saline with Tween-80).

As to `Cc1cccc(N=Cc2ccc3c(c2)OCO3)c1`, the T/C is 94 % of control (dose: 50.0 mg/kg/injection, schedule: Q01DX009 (ip), vehicle: saline); 94 % of control (dose: 100.0 mg/kg/injection, schedule: Q01DX009 (ip), vehicle: saline); 94 % of control (dose: 200.0 mg/kg/injection, schedule: Q01DX009 (ip), vehicle: saline).

`CC(C)(O)C/C=C/c1ccccc1`: the T/C reads like this: under setting [1], 103 % of control; under setting [2], 103 % of control; under setting [3], 106 % of control.

Turning to `OC1c2ccccc2-c2ccccc21`, the T/C is, setting by setting: under setting [4], 91 % of control; under setting [5], 93 % of control; under setting [6], 93 % of control.

Turning to `O=NN(CCCl)C(=O)Nc1ccccc1`, the T/C (dose: 2.0 mg/kg/injection, schedule: Q01DX Z (ip), vehicle: carboxymethylcellulose (CMC)) is 114 % of control; the T/C (dose: 4.0 mg/kg/injection, schedule: Q01DX Z (ip), vehicle: carboxymethylcellulose (CMC)) is 169 % of control; the T/C (dose: 6.0 mg/kg/injection, schedule: Q01DX Z (ip), vehicle: carboxymethylcellulose (CMC)) was 160 % of control and 213 % of control; the T/C (dose: 10.0 mg/kg/injection, schedule: Q01DX Z (ip), vehicle: carboxymethylcellulose (CMC)) was 102 % of control; the T/C (dose: 14.0 mg/kg/injection, schedule: Q01DX Z (ip), vehicle: carboxymethylcellulose (CMC)) was 102 % of control; the T/C (dose: 18.0 mg/kg/injection, schedule: Q01DX001 (ip), vehicle: carboxymethylcellulose (CMC)) was 123 % of control. The T/C (dose: 18.0 mg/kg/injection, schedule: Q01DX Z (ip), vehicle: carboxymethylcellulose (CMC)) is 174 % of control; the T/C (dose: 20.0 mg/kg/injection, schedule: Q01DX Z (ip), vehicle: carboxymethylcellulose (CMC)) was 166 % of control; the T/C (dose: 25.0 mg/kg/injection, schedule: Q01DX Z (ip), vehicle: carboxymethylcellulose (CMC)) was 107 % of control and 89 % of control; the T/C (dose: 72.0 mg/kg/injection, schedule: Q01DX001 (ip), vehicle: carboxymethylcellulose (CMC)) was 114 % of control.

In the case of `O=S(=O)(c1ccc(NC(=S)NC(Cc2ccccc2)c2ccccc2)cc1)N1CCCCC1` (stereo not given), the T/C is, setting by setting: (dose: 100.0 mg/kg/injection, schedule: Q04DX003 (ip), vehicle: carboxymethylcellulose (CMC)) 91 % of control; (dose: 200.0 mg/kg/injection, schedule: Q04DX003 (ip), vehicle: carboxymethylcellulose (CMC)) 89 % of control; (dose: 400.0 mg/kg/injection, schedule: Q04DX003 (ip), vehicle: carboxymethylcellulose (CMC)) 93 % of control.

With `Nc1ccnc(C(F)(F)F)n1`, the T/C was 93 % of control (dose: 50.0 mg/kg/injection, schedule: Q01DX Z (ip), vehicle: methylcellulose (MC)) and 90 % of control (dose: 100.0 mg/kg/injection, schedule: Q01DX Z (ip), vehicle: methylcellulose (MC)).

`C/C=C\S(=O)(=O)c1ccccc1`: the T/C by setting is: (dose: 25.0 mg/kg/injection, schedule: Q04DX002 (ip), vehicle: Klucel (hydroxypropylcellulose) (HPC)) 98 % of control; (dose: 50.0 mg/kg/injection, schedule: Q04DX002 (ip), vehicle: Klucel (hydroxypropylcellulose) (HPC)) 98 % of control; (dose: 100.0 mg/kg/injection, schedule: Q04DX002 (ip), vehicle: Klucel (hydroxypropylcellulose) (HPC)) 105 % of control; (dose: 200.0 mg/kg/injection, schedule: Q04DX002 (ip), vehicle: Klucel (hydroxypropylcellulose) (HPC)) 89 % of control.

For the compound `c1ccc2cc(Sc3ncnc4nc[nH]c34)ccc2c1`, the T/C under setting [7] was 97 % of control; the T/C under setting [1] was 105 % of control; the T/C (dose: 200.0 mg/kg/injection, schedule: Q01DX009 (ip), vehicle: saline with Tween-80) was 103 % of control; the T/C under setting [2] was 98 % of control; the T/C (dose: 400.0 mg/kg/injection, schedule: Q01DX009 (ip), vehicle: saline with Tween-80) was 97 % of control; the T/C under setting [3] was 98 % of control.

Take `O=C(O)CNc1ccc(S(=O)(=O)c2ccc(NCC(=O)O)cc2)cc1`: the T/C is, setting by setting: under setting [8], 102 % of control; under setting [9], 102 % of control; under setting [10], 98 % of control.

Take `O=CC(O)C(O)C(OC1OC(CO)C(OC2OC(CO)C(O)C(O)C2O)C(O)C1O)C(O)CO` (stereo not given): the T/C reads like this: under setting [4], 93 % of control; under setting [5], 93 % of control; under setting [6], 94 % of control.

On to `CCCCNC(=S)SCCC(=O)O`, for which the T/C under setting [11] was 100 % of control; the T/C under setting [12] is 104 % of control; the T/C (dose: 400.0 mg/kg/injection, schedule: Q04DX002 (ip), vehicle: saline with Tween-80) is 102 % of control.

Take `CSc1ncnc2c1ncn2C1OC(CO)C2OC(C)(C)OC21` (stereo not given): the T/C is 112 % of control (dose: 100.0 mg/kg/injection, schedule: Q01DX005 (ip), vehicle: saline) and 122 % of control (dose: 200.0 mg/kg/injection, schedule: Q01DX005 (ip), vehicle: saline).

`Cc1cc(Cl)c(OC(=O)Nc2ccccc2F)cc1C`: the T/C (dose: 25.0 mg/kg/injection, schedule: Q01DX009 (ip), vehicle: saline with Tween-80) is 106 % of control; the T/C (dose: 50.0 mg/kg/injection, schedule: Q01DX009 (ip), vehicle: saline with Tween-80) was 114 % of control; the T/C under setting [7] was 103 % of control and 105 % of control.

Consider `O=C1Cc2ncccc2N1`, for which the T/C by setting is: under setting [8], 107 % of control; under setting [9], 100 % of control; under setting [10], 114 % of control.

As to `Clc1ccc2nc(Cl)c(Cl)nc2c1`, the T/C (dose: 100.0 mg/kg/injection, schedule: Q04DX003 (ip), vehicle: Klucel (hydroxypropylcellulose) (HPC)) was 91 % of control and the T/C (dose: 200.0 mg/kg/injection, schedule: Q04DX003 (ip), vehicle: Klucel (hydroxypropylcellulose) (HPC)) was 96 % of control.

Regarding `FC(F)(F)c1nc2nc(Cl)c(Cl)nc2s1`, the T/C was 116 % of control (dose: 0.5 mg/kg/injection, schedule: Q01DX009 (ip), vehicle: other); 106 % of control (dose: 1.0 mg/kg/injection, schedule: Q01DX009 (ip), vehicle: other); 101 % of control (dose: 2.0 mg/kg/injection, schedule: Q01DX009 (ip), vehicle: other); 114 % of control (dose: 3.12 mg/kg/injection, schedule: Q01DX009 (ip), vehicle: other); 107 % of control (dose: 4.0 mg/kg/injection, schedule: Q01DX009 (ip), vehicle: other); 103 % of control (dose: 6.25 mg/kg/injection, schedule: Q01DX009 (ip), vehicle: other). The T/C runs as follows: (dose: 12.5 mg/kg/injection, schedule: Q01DX009 (ip), vehicle: other) 103 % of control; (dose: 25.0 mg/kg/injection, schedule: Q01DX009 (ip), vehicle: other) 101 % of control and 103 % of control.

With `CC(=O)/C=C/c1ccco1`, the T/C is 101 % of control (dose: 12.5 mg/kg/injection, schedule: Q01DX009 (ip), vehicle: DMSO); 97 % of control (dose: 25.0 mg/kg/injection, schedule: Q01DX009 (ip), vehicle: DMSO); 96 % of control (dose: 25.0 mg/kg/injection, schedule: Q04DX003 (ip), vehicle: DMSO); 92 % of control (dose: 50.0 mg/kg/injection, schedule: Q01DX009 (ip), vehicle: DMSO); 108 % of control (dose: 50.0 mg/kg/injection, schedule: Q04DX003 (ip), vehicle: DMSO); 98 % of control (dose: 100.0 mg/kg/injection, schedule: Q04DX003 (ip), vehicle: DMSO).

For the compound `Cc1ncc(CO)c2c1OC1=CCCCC1=C2`, the T/C by setting is: under setting [11], 95 % of control; under setting [12], 92 % of control.
